From patent US7842703B2, “Substituted benzofused derivatives and their use as vanilloid receptor ligands” (Glenmark Pharmaceuticals S.A., priority 2005, dated 2010)
pIC50: −log10 of the molar value. Counter-ions that a name gives are not always drawn.

Target: T1, Human TRPV1 expressing CHO cells (Homo sapiens, UniProt Q8NER1)
T1 construct: expressed in transfected cells; host or cells: CHO cells under G-418 selection
Test: Screening for TRPV1 antagonist using the 45Calcium uptake assay (inhibition of capsaicin induced cellular uptake of radioactive calcium)
Type: cell-based
Conditions: for inhibition at 1 µM: CHO, test compound 1 μM, capsaicin 250 nM, relative to maximum ^45Ca uptake induced by capsaicin alone; for pIC50: inhibition of capsaicin (250 nM) induced ^45Ca uptake
Experimental: The inhibition of TRPV1 receptor activation was followed as inhibition of capsaicin induced cellular uptake of radioactive calcium which represents calcium influx exclusively through the plasma membrane associated TRPV1 receptor.
Stock solution of capsaicin was made in ethanol and test compounds in 100% DMSO. Stock solutions were diluted to appropriate final concentrations in assay buffer keeping the final DMSO concentration between 0.1% and 0.55%.
^45Ca was used at a final concentration of 2.5 μCi/ml (^45Ca, ICN).
Assay buffer was composed of F-12 DMEM medium supplemented with 1.8 mM CaCl2 (final conc.) and 0.1% Bovine serum albumin. (BSA from SIGMA)
Wash buffer was tyrodes solution supplemented with 0.1% BSA and 1.8 mM calcium. Lysis buffer contained 50 mM Tris-HCl, pH7.5, 150 mM NaCl, 1% Triton X-100, 0.5% deoxycholate and 0.1% Sodium dodicyl sulphate (SDS, SIGMA)
Assay was carried out with some modifications the of procedure as described by Toth et. al. (See Toth A et. al., Life Sciences 73 p 487-498, 2003). Human TRPV1 expressing CHO cells were grown in F-12 DMEM (Dulbecco's modified Eagle's medium—GIBCO) medium with 10% FBS (fetal bovine serum Hyclone), 1% penicillin-streptomycin solution, 400 μg/ml of G-418. Cells were seeded 48 h prior to the assay in 96 well plates so as to get ˜50,000 cells per well on the day of experiment. Plates were incubated at 37° C. in the presence of 5% CO2. Cells were then washed twice with 200 μl of assay buffer and re-suspended in 144 μl of the same. Assay was carried out at 30° C. in total volume of 200 μl. Test compounds were added to the cells fifteen minutes before addition of capsaicin, Final concentration of capsaicin in the assay was 250 nM. After 5 minutes of agonist treatment, drug was washed out and wells rinsed with 300 μl of ice cold wash buffer 3×. The cells were lysed in 50 μl lysis buffer for 20 min. 40 μl of cell lysate was mixed with 150 μl of Microscint PS, left overnight for equilibration. Radioactivity in samples was measured as counts per minute (cpm) using Packard Biosciences Top Count. The drug/vehicle/capsaicin treated ^45Ca uptake values were normalized over basal ^45Ca value. Data was expressed as % inhibition of ^45Ca uptake by test compound with respect to maximum ^45Ca uptake induced by capsaicin alone. IC50 value was calculated from dose response curve by nonlinear regression analysis using GraphPadPRISM software.

T1 sequence (Q8NER1 whole entry): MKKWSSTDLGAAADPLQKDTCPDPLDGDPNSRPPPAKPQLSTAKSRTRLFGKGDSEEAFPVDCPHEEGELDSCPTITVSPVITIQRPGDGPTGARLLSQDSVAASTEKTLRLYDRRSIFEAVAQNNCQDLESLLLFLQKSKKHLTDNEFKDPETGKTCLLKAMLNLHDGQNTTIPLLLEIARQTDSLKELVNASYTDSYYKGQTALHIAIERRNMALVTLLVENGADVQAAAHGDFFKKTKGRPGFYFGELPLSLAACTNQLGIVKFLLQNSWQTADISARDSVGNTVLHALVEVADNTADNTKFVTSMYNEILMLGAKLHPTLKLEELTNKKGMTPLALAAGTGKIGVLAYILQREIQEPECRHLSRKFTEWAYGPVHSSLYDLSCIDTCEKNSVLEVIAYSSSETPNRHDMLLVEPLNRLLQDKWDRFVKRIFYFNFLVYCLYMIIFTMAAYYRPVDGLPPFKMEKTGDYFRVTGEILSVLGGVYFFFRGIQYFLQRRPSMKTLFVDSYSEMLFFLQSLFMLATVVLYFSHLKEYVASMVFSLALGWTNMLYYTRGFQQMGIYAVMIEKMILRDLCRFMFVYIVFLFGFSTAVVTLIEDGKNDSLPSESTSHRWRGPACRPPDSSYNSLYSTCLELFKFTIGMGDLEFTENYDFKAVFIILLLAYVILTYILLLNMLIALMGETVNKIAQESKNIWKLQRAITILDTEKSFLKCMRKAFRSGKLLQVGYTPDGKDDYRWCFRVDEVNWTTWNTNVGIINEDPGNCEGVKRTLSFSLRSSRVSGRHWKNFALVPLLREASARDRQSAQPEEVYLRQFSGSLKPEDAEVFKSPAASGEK

| Structure (SMILES) | inhibition at 1 µM [%] | pIC50 |
| --- | --- | --- |
| O=C(Nc1cccc2cnccc12)NC1CC2(CCC2)Oc2ccc(O)cc21 (racemic) [Example 45, (±) 1-(3,4-Dihydro-6-hydroxy-spiro[2H-1-benzopyran-2,1′-cyclobutane]-4-yl)-3-(isoquinolin-5-yl)urea] | < 50 |  |
| O=C(Nc1cccc2cnccc12)NC1CC2(CCC2)Oc2cc(O)ccc21 (racemic) [Example 46, (±) 1-(3,4-Dihydro-7-hydroxy-spiro[2H-1-benzopyran-2,1′-cyclobutane]-4-yl)-3-(isoquinolin-5-yl)urea] | < 50 |  |
| COc1ccc2c(c1)OC1(CCC1)CC2NC(=O)Nc1cccc2cnccc12 (racemic) [Example 47, (±) 1-(3,4-Dihydro-7-methoxy-spiro[2H-1-benzopyran-2,1′-cyclobutane]-4-yl)-3-(isoquinolin-5-yl)urea] | > 50 | 9.68 |
| O=C(Nc1cccc2cnccc12)NC1CC2(CCC2)Oc2c(Cl)cccc21 (racemic) [Example 49, (±) 1-(8-Chloro-3,4-dihydro-spiro[2H-1-benzopyran-2,1′-cyclobutane]-4-yl)-3-(isoquinolin-5-yl)urea] | > 50 | 7.52 |
| COc1ccc2c(c1)C(NC(=O)Nc1cccc3cnccc13)CC1(CCC1)O2 (racemic) [Example 51, (±) 1-(3,4-Dihydro-6-methoxy-spiro[2H-1-benzopyran-2,1′-cyclobutane]-4-yl)-3-(isoquinolin-5-yl)urea] | > 50 | 6.23 |
| O=C(Nc1cccc2cnccc12)NC1CC2(CCC2)Oc2ccc(OC3CCCC3)cc21 (racemic) [Example 52, (±) 1-(6-Cyclopentyloxy-3,4-dihydro-spiro[2H-1-benzopyran-2,1′-cyclobutane]-4-yl)-3-(isoquinolin-5-yl)urea] | < 50 |  |
| O=C(Nc1cccc2cnccc12)NC1CC2(CCC2)Oc2cc(OC3CCCC3)ccc21 (racemic) [Example 53, (±) 1-(7-Cyclopentyloxy-3,4-dihydro-spiro[2H-1-benzopyran-2,1′-cyclobutane]-4-yl)-3-(isoquinolin-5-yl)urea] | > 50 | 7.80 |
| O=C(Nc1cccc2cnccc12)NC1CC2(CCC2)Oc2cc(OC(F)F)ccc21 (racemic) [Example 54, (±) 1-(7-Difluoromethoxy-3,4-dihydro-spiro[2H-1-benzopyran-2,1′-cyclobutane]-4-yl)-3-(isoquinolin-5-yl)urea. Hydrochloride] | > 50 | 8.65 |
| CNS(=O)(=O)c1ccc2c(c1)C(NC(=O)Nc1cccc3cnccc13)CC1(CCC1)O2 (racemic) [Example 55, (±) 1-(3,4-Dihydro-6-methylaminosulfonyl-spiro[2H-1-benzopyran-2,1′-cyclobutane]-4-yl)-3-(isoquinolin-5-yl)urea] | < 50 |  |
| Cc1cc2c(NC(=O)NC3CC4(CCC4)Oc4cc(OC(F)F)ccc43)cccc2cn1 (racemic) [Example 56, (±) 1-(7-Difluoromethoxy-3,4-dihydro-spiro[2H-1-benzopyran-2,1′-cyclobutane]-4-yl)-3-(3-methylisoquinolin-5-yl)urea] | > 50 | 7.84 |
| Cc1cc2c(NC(=O)NC3CC4(CCC4)Oc4cc(Cl)ccc43)cccc2cn1 (racemic) [Example 57, (±) 1-(7-Chloro-3,4-dihydro-spiro[2H-1-benzopyran-2,1′-cyclobutane]-4-yl)-3-(3-methylisoquinolin-5-yl)urea] | > 50 | 6.35 |
| N#Cc1cccc2c1OC1(CCC1)CC2NC(=O)Nc1cccc2cnccc12 (racemic) [Example 58, (±) 1-(8-Cyano-3,4-dihydro-spiro[2H-1-benzopyran-2,1′-cyclobutane]-4-yl)-3-(isoquinolin-5-yl)urea] | < 50 |  |
| O=C(Nc1cccc2cnccc12)NC1CC2(CCC2)Oc2c(OC(F)F)cccc21 (racemic) [Example 62, (±) 1-(3,4-Dihydro-8-difluoromethoxy-spiro[2H-1-benzopyran-2,1′-cyclobutane]-4-yl)-3-(isoquinolin-5-yl)urea] | < 50 |  |
| O=C(Nc1cccc2cnccc12)NC1CC2(CCC2)Oc2ccc(Cl)cc21 (racemic) [Example 63, (±) 1-(6-Chloro-3,4-dihydro-spiro[2H-1-benzopyran-2,1′-cyclobutane]-4-yl)-3-(isoquinolin-5-yl)urea] | > 50 | 6.51 |
| O=C(Nc1cccc2cnccc12)NC1CC2(CCC2)Oc2ccc(Br)cc21 (racemic) [Example 65, (±) 1-(6-Bromo-3,4-dihydro-spiro[2H-1-benzopyran-2,1′-cyclobutane]-4-yl)-3-(isoquinolin-5-yl)urea] | > 50 | 6.39 |
| O=C(Nc1cccc2cnccc12)NC1CC2(CCC2)Oc2c(Cl)cc(Cl)cc21 (racemic) [Example 66, (±) 1-(6,8-Dichloro-3,4-dihydro-spiro[2H-1-benzopyran-2,1′-cyclobutane]-4-yl)-3-(isoquinolin-5-yl)urea] | > 50 | 6.34 |
| Cc1cc2c(cc1Br)C(NC(=O)Nc1cccc3cnccc13)CC1(CCC1)O2 (racemic) [Example 67, (±) 1-(6-Bromo-3,4-dihydro-7-methylspiro[2H-1-benzopyran-2,1′-cyclobutane]-4-yl)-3-(isoquinolin-5-yl)urea] | > 50 | 6.35 |
| O=C(Nc1cccc2cnccc12)NC1CC2(CCC2)Oc2cc(Cl)c(Cl)cc21 (racemic) [Example 68, (±) 1-(6,7-Dichloro-3,4-dihydro-spiro[2H-1-benzopyran-2,1′-cyclobutane]-4-yl)-3-(isoquinolin-5-yl)urea] | > 50 | 6.65 |
| Cc1cc2c(cc1Cl)C(NC(=O)Nc1cccc3cnccc13)CC1(CCC1)O2 (racemic) [Example 69, (±) 1-(6-Chloro-3,4-dihydro-7-methyl-spiro[2H-1-benzopyran-2,1′-cyclobutane]-4-yl)-3-(isoquinolin-5-yl)urea] | > 50 | 7.35 |
| O=C(Nc1ccc(Cl)c2cnccc12)NC1CC2(CCC2)Oc2ccc(Cl)cc21 (racemic) [Example 70, (±) 1-(6-Chloro-3,4-dihydro-spiro[2H-1-benzopyran-2,1′-cyclobutane]-4-yl)-3-(8-chloroisoquinolin-5-yl)urea] | < 50 |  |
| O=C(Nc1ccc(Cl)c2cnccc12)NC1CC2(CCC2)Oc2ccc(F)cc21 (racemic) [Example 71, (±) 1-(6-Fluoro-3,4-dihydro-spiro[2H-1-benzopyran-2,1′-cyclobutane]-4-yl)-3-(8-chloroisoquinolin-5-yl)urea] | > 50 | 6.23 |
| Cc1cc2c(NC(=O)NC3CC4(CCC4)Oc4ccc(F)cc43)cccc2cn1 (racemic) [Example 72, (±) 1-(3,4-Dihydro-6-fluoro-spiro[2H-1-benzopyran-2,1′-cyclobutane]-4-yl)-3-(3-methylisoquinolin-5-yl)urea] | > 50 | 6.33 |
| Cc1cc2c(NC(=O)NC3CC4(CCC4)Oc4ccc(Cl)cc43)cccc2cn1 (racemic) [Example 73, (±) 1-(6-Chloro-3,4-dihydro-spiro[2H-1-benzopyran-2,1′-cyclobutane]-4-yl)-3-(3-methylisoquinolin-5-yl)urea] | > 50 | 5.90 |
| Cc1nccc2c(NC(=O)NC3CC4(CCC4)Oc4ccc(Cl)cc43)cccc12 (racemic) [Example 74, (±) 1-(6-Chloro-3,4-dihydro-spiro[2H-1-benzopyran-2,1′-cyclobutane]-4-yl-3-(1-methylisoquinolin-5-yl)urea] | > 50 | 6.04 |
| Cc1nccc2c(NC(=O)NC3CC4(CCC4)Oc4ccc(F)cc43)cccc12 (racemic) [Example 75, (±) 1-(3,4-Dihydro-6-fluoro-spiro[2H-1-benzopyran-2,1′-cyclobutane]-4-yl)-3-(1-methylisoquinolin-5-yl)urea] | > 50 | 7.64 |
| O=C(Nc1cccc2cnccc12)NC1CC2(CCC2)Oc2ccc([N+](=O)[O-])cc21 (racemic) [Example 77, (±) 1-(3,4-Dihydro-6-nitro-spiro[2H-1-benzopyran-2,1′-cyclobutane]-4-yl)-3-(isoquinolin-5-yl)urea] | > 50 | 6.33 |
